Tests used:
[1] = in vitro; conditions: dog, MDCK
[2] = in vitro; conditions: dog, MDCK; remark: listed apart in the source
[3] = in vitro; conditions: dog, MDCK; remark: listed apart in the source
[4] = biological target: T1, NAD-dependent protein deacetylase sirtuin-3, mitochondrial (Homo sapiens, UniProt Q9NTG7)
T1 sequence (Q9NTG7 whole entry): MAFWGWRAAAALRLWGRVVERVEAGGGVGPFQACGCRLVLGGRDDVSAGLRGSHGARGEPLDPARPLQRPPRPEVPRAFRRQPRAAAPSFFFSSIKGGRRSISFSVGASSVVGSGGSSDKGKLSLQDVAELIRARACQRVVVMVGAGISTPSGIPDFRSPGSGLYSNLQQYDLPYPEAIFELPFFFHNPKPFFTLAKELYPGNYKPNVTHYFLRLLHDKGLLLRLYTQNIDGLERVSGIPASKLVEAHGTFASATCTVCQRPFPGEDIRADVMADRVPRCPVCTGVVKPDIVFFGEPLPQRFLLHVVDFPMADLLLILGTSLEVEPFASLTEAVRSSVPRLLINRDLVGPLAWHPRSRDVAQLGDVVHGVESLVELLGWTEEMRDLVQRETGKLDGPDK

[5] = biological target: NAD-dependent protein deacylase sirtuin-5, mitochondrial (Homo sapiens, UniProt Q9NXA8)
[6] = in vitro; conditions: human, plasma
Description: Metabolic stability in human plasma assessed as parent compound remaining incubated for 6 hrs by LC-MS/MS analysis

[7] = in vitro; conditions: mouse, microsomes
Description: Half life in mouse liver microsomes at 1 uM by LC-MS/MS analysis in presence of NADPH

[8] = in vitro; conditions: human, plasma; remark: listed apart in the source
Description: Metabolic stability in human plasma assessed as parent compound remaining incubated for 24 hrs by LC-MS/MS analysis

[9] = in vitro; conditions: mouse, plasma
Description: Metabolic stability in mouse plasma assessed as parent compound remaining incubated for 24 hrs by LC-MS/MS analysis

[10] = in vitro; conditions: human, microsomes
Description: Half life in human liver microsomes at 1 uM by LC-MS/MS analysis in presence of NADPH

[11] = in vitro; conditions: mouse, plasma; remark: listed apart in the source
Description: Metabolic stability in mouse plasma assessed as parent compound remaining incubated for 6 hrs by LC-MS/MS analysis

Chain of NAD-dependent protein deacylase sirtuin-5, mitochondrial (Q9NXA8 whole entry): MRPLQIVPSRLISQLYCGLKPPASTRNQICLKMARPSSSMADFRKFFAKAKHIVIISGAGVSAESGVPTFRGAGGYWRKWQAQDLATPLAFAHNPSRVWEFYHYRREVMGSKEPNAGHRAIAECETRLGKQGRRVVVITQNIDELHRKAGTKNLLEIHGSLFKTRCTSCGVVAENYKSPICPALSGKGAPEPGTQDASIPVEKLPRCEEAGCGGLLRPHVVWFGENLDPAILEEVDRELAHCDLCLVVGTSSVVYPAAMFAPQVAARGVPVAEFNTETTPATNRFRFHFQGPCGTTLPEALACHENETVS

SMILES | Papp B→A at 3 h, 25 µM [1] | Papp A→B at 3 h, 25 µM [2] | recovery at 3 h, 25 µM [3] | IC50 [4] | IC50 [5] | remaining at 6 h [6] | half-life at 1 µM [7] | remaining at 24 h [8] | remaining at 24 h [9] | half-life at 1 µM [10] | remaining at 6 h [11]
NC(=O)c1cncc(Oc2cccc3c(NC(=O)c4ccccc4)cccc23)c1 | 4.4 ×10⁻⁶ cm/s | 3.8 ×10⁻⁶ cm/s | > 90% | – | – | – | – | – | – | – | –
NC(=O)c1cncc(OCc2cccc(NC(=O)C34CC5CC(CC(C5)C3)C4)c2)c1 | – | – | – | > 200 µM | – | – | – | – | – | – | –
NC(=O)c1cncc(OCc2cccc(NC(=O)c3cccnc3)c2)c1 | 25 ×10⁻⁶ cm/s | 23 ×10⁻⁶ cm/s | > 90% | – | > 200 µM | 99% | 51 min | 97% | 25% | 330 min | 78%

From ChEMBL document CHEMBL3804824, “5-((3-Amidobenzyl)oxy)nicotinamides as Sirtuin 2 Inhibitors” (J Med Chem, 2016)
